Here are results for 4 substances from patent US7049289B1, “Labelled glutamine and lysine analogues” (Amersham PLC, priority 1998, dated 2006).

*1 amine or outer side, *2 acyl side, *3 side chain or, on linkers, in order; H or OH if unused. Glutaryl = O=C(CCCC(=O)[*:2])[*:1]; code Z = not defined here

A short description of experiment [1]: Incorporation into clots induced in a rat model (rat inferior vena cava model). In kind it is in vivo, rat (Male Wistar). To be noted: for % id/g (clot) / Rel. Conc. (cpm/g of clot by dose/g animal): sacrificed after 60 min. In a few lines: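 Male Wistar rats (250–350 g) under 15% urethane anaesthesia, with the vena cava isolated by laparotomy. Compounds given 5 min (fresh clot) or 60 min (aged clot) after clot induction; clot, blood, lung and heart removed 60 min later, weighed and counted. Uptake expressed as cpm/g clot per dose/g animal and as clot-to-background tissue ratio.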

Experiment [2] has as its target T1, fibrin (in vitro human plasma clot) (Homo sapiens, UniProt P02671+P02675+P02679).
T1 construct: about 400 μl of human plasma containing the radiolabelled substrate; from tissue; host or cells: human plasma, clotted in vitro with added thrombin and calcium chloride
T1 sequence (P02671 20-644 isoform P02671-2 limits assumed): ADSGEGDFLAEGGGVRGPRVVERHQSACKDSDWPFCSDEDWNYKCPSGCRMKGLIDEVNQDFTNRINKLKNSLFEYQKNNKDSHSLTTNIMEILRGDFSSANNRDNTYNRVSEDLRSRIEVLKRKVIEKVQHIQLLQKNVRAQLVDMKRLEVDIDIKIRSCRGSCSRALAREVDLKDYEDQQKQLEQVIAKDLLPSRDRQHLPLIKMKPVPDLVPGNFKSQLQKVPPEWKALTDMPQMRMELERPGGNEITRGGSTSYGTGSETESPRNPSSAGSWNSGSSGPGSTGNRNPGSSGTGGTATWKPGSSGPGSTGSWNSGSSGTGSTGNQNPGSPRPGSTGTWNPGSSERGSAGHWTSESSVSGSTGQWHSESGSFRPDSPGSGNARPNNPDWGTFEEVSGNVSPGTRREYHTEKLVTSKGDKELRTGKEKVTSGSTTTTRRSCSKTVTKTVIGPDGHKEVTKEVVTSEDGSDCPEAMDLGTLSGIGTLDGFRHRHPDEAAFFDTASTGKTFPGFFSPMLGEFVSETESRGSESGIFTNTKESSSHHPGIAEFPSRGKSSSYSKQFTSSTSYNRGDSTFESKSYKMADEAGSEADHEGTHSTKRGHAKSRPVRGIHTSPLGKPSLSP
T1 sequence (P02675 45-491 limits assumed): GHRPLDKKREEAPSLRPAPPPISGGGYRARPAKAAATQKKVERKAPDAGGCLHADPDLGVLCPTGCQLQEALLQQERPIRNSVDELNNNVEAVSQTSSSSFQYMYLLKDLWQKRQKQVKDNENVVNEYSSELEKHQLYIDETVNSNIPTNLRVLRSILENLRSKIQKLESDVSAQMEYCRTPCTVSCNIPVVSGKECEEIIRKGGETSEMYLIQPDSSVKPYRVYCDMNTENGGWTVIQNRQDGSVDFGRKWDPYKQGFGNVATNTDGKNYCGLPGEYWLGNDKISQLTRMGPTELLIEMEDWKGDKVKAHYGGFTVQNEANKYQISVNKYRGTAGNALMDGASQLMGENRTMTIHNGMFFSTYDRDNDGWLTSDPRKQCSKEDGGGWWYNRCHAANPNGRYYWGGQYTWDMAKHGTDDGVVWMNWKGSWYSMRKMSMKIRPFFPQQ
T1 sequence (P02679 27-437 isoform P02679-2 limits assumed): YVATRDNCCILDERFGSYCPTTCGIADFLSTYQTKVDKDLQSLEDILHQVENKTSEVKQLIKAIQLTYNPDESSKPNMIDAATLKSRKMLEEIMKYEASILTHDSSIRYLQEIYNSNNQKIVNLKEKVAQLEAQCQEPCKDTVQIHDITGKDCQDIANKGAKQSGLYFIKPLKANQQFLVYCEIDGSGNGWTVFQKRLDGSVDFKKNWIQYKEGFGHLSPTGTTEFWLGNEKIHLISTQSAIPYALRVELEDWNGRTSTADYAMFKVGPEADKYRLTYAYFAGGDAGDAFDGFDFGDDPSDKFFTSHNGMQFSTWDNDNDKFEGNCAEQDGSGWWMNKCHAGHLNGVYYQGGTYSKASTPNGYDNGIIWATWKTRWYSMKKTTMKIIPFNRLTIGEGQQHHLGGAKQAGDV
Briefly: Incorporation into human plasma clots in vitro. In kind it is biochemical. To be noted: for % specific uptake: % retained (with thrombin) - % retained (no thrombin); for % retained (no thrombin): control without thrombin and calcium chloride (non-specific binding); for % retained (with thrombin): human plasma clot, 60 minutes, ca. 20° C. Summed up: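 Fibrin incorporation is expressed as the fraction of total radioactivity retained with filtered clots, corrected for non-specific binding in controls lacking thrombin and calcium chloride. Clotting was induced by thrombin in Ca2+-containing Tris-buffered saline (pH 7.5) with human plasma carrying about 10 kBq/ml tracer, for 60 min at ambient temperature before EDTA quench.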

Where [3] appears, read: Aged Clots: injected 60 min post-induction.
[4] abbreviates: Fresh Clots: injected 5 min post-induction.

In experiment [1] (Aged Clots), “Pn216-CO(CH2)3CO-NQEQVSPYTLLKG-NH2 ({Pn216-Glutaryl}-NQEQVSPYTLLKG-NH2; also: 99mTc complex) [^99mTc-Cmpd 39]” gave a Clot/blood of 15, a Clot/heart of 43, a Clot/liver of 11 and a Clot/lung of 12. Besides, in experiment [1] (setting [3]), the “% id/g (clot)” value is listed as 2.4 ± 0.3 % id/g and the “Rel. Conc. (cpm/g of clot by dose/g animal)” value is listed as 8.2 ± 1.1. In experiment [1] (Fresh Clots), this substance gave a Clot/blood of 9, a Clot/heart of 29, a Clot/liver of 31 and a Clot/lung of 14. Also, in experiment [1] (setting [4]), the “% id/g (clot)” value is listed as 2.5 ± 0.3 % id/g and the “Rel. Conc. (cpm/g of clot by dose/g animal)” value is 9.0 ± 1.1. In experiment [2], the “% specific uptake” value is 23.0%, the “% retained (no thrombin)” value was found to be 0.1% and the “% retained (with thrombin)” value came to 23.1%.
“Z-NQEQVSP(I-Y)TLLKG-Pn216 [^99mTc-Cmpd 24]”: in experiment [1] (Aged Clots), the Clot/blood was determined as 15, the Clot/heart amounted to 40, the Clot/liver was determined as 37 and the Clot/lung is given as 20. In experiment [1] (setting [3]), the “% id/g (clot)” value was 4.1 ± 2.5 % id/g and the “Rel. Conc. (cpm/g of clot by dose/g animal)” value is on record as 11.9 ± 8.0. In experiment [1] (Fresh Clots), the Clot/blood is recorded as 10, the Clot/heart came out at 21, the Clot/liver was determined as 11 and the Clot/lung was 10. For the same substance, in experiment [1] (setting [4]), the “% id/g (clot)” value worked out at 4.0 ± 2.2 % id/g and the “Rel. Conc. (cpm/g of clot by dose/g animal)” value is 11.1 ± 6.7. In experiment [2], the “% specific uptake” value stood at 56.4%, the “% retained (no thrombin)” value is given as 0.4% and the “% retained (with thrombin)” value is listed as 56.8%.
In experiment [1] (Aged Clots), “Z-NQEQVSPYAAAAG-Pn216 ({code Z}-NQEQVSPYAAAAG-Pn216; reading uncertain; also: 99mTc complex, printed as Z-NQEQVSPYAAAAG-Pn216) [^99mTc-Cmpd 42]” returned a Clot/blood of 5, a Clot/heart of 21, a Clot/liver of 6 and a Clot/lung of 7. For the same substance, in experiment [1] (setting [3]), the “% id/g (clot)” value stood at 0.4 ± 0.1 % id/g and the “Rel. Conc. (cpm/g of clot by dose/g animal)” value was 1.3 ± 0.3. Moreover, in experiment [1] (Fresh Clots), the Clot/blood is listed as 2, the Clot/heart came out at 1, the Clot/liver is 63 and the Clot/lung is given as 0.3. Moreover, in experiment [1] (setting [4]), the “% id/g (clot)” value is 0.3 ± 0.1 % id/g and the “Rel. Conc. (cpm/g of clot by dose/g animal)” value came out at 0.3 ± 0.2. In addition, in experiment [2], the “% specific uptake” value turned out to be 14.0%, the “% retained (no thrombin)” value is on record as 0.2% and the “% retained (with thrombin)” value was found to be 14.2%.
In experiment [1] (Aged Clots), “Z-NQEQVSPYTLLKG-Pn216 ({code Z}-NQEQVSPYTLLKG-Pn216; reading uncertain; also: 99mTc complex, printed as Z-NQEQVSPYTLLKG-Pn216) [^99mTc-Cmpd 8]” registered a Clot/blood of 10, a Clot/heart of 24, a Clot/liver of 16 and a Clot/lung of 9. Moreover, in experiment [1] (setting [3]), the “% id/g (clot)” value was determined as 5.3 ± 1.3 % id/g and the “Rel. Conc. (cpm/g of clot by dose/g animal)” value was 16.4 ± 4.3. In experiment [1] (Fresh Clots), the Clot/blood turned out to be 14, the Clot/heart is 41, the Clot/liver is 21 and the Clot/lung is 18. In experiment [1] (setting [4]), the “% id/g (clot)” value turned out to be 6.7 ± 1.7 % id/g and the “Rel. Conc. (cpm/g of clot by dose/g animal)” value was 21.0 ± 6.8. In experiment [2], the “% specific uptake” value stood at 24.5%, the “% retained (no thrombin)” value turned out to be 1.4% and the “% retained (with thrombin)” value is 25.9%.
